Experimental data from article PMC8151655, “Some Dietary Phenolic Compounds Can Activate Thyroid Peroxidase and Inhibit Lipoxygenase-Preliminary Study in the Model Systems” (International Journal of Molecular Sciences, 2021).

Assays:
LOX [1] = settings: different concentration than in the presented study; cited from earlier work
[2] = ABTS radical scavenging assay; settings: 15 min incubation at room temperature, n = 9; read-out: IC50 ABTS radical scavenging ability
Description: ABTS radical scavenging activity was determined according to Re et al. with slight modifications using a microplate spectrophotometer (BioTek, Model Epoch2TC, Winooski, VT, USA) after 15 min of incubation at room temperature.

thyroid peroxidase (TPO) = target: T1, thyroid peroxidase (TPO) (Sus scrofa, UniProt P09933); experiment: TPO assay (guaiacol oxidation, activation kinetics); format: biochemical, Porcine; settings: n = 9, read-out: AC50 (concentration resulting in 50% activation)
T1 construct: The frozen thyroid gland was minced with a fork; from tissue; host or cells: porcine thyroid gland (homogenate, centrifuged, salted out to 60%)
T1 sequence (P09933 15-926): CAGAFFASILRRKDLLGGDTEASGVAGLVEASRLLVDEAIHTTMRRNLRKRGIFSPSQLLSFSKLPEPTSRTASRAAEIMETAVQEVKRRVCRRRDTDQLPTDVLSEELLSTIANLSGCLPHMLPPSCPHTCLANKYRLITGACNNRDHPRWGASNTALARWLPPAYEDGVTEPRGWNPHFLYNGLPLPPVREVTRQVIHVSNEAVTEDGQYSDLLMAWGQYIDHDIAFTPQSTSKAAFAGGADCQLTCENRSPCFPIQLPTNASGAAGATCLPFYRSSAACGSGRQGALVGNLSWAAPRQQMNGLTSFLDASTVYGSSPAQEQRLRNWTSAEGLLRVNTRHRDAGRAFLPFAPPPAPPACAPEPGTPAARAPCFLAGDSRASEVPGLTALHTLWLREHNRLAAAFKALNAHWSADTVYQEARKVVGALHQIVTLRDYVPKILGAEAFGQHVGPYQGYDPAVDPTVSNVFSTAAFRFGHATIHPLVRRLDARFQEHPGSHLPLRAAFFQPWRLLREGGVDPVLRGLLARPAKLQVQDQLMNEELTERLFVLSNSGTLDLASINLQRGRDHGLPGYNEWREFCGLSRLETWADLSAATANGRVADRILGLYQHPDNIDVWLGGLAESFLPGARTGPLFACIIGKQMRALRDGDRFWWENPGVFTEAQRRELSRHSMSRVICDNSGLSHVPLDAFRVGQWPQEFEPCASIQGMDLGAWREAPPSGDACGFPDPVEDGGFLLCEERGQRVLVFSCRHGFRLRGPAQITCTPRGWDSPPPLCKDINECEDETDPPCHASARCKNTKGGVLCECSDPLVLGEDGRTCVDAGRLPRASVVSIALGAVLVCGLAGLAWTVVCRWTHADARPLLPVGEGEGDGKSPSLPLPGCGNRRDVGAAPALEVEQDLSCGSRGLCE
Description: (§1) The assay was prepared according to Jomaa et al., with some modifications. Porcine thyroid glands were purchased at a slaughterhouse (Lublin, Poland) and stored at −20 °C until used. The frozen thyroid gland was minced with a fork. The mince was suspended in a buffer containing 0.25 M sucrose, 2 mM tris–HCl, 100 mM KCl, 40 mM NaCl and 10 mM MgCl2 (pH 7.4) and homogenized using Philips homogenizer. The thyroid gland was centrifuged two times at 4000 RPM per 15 min at a temperature + 4 °C. The enzyme protein was then salted out to 60%. The supernatant was stored at − 20 °C until used.
(§2) The assay was used according to Jomaa et al., with some modification. The measurement was made using a plate spectrophotometer (BioTek, Model Epoch2TC, Winooski, VT, USA) in 96–well plates at a wavelength of 470 nm. Absorbance readings were recorded every minute for a total of 3 min at 37 °C. TPO activity is expressed as a change of absorption per minute. All measurements were performed in three replicates. The AC50 (activator concentration) values were calculated at fitted models as the concentration of the tested compound providing 50% of the activation based on a dose-dependent mode of action.

[3] = parameters: method as in earlier work; settings: cited from earlier work
[4] = target: T2, soybean lipoxygenase type 1-B (LOX) (Glycine max, UniProt P08170); experiment: Inhibition of lipoxygenase activity (LOXI) with linoleic acid as substrate; format: biochemical; settings: for Mode of Inhibition: Lineweaver-Burk, linoleic acid substrate
T2 construct: purchased Sigma-Aldrich Company (Poznan, Poland)
T2 sequence (P08170 1-839): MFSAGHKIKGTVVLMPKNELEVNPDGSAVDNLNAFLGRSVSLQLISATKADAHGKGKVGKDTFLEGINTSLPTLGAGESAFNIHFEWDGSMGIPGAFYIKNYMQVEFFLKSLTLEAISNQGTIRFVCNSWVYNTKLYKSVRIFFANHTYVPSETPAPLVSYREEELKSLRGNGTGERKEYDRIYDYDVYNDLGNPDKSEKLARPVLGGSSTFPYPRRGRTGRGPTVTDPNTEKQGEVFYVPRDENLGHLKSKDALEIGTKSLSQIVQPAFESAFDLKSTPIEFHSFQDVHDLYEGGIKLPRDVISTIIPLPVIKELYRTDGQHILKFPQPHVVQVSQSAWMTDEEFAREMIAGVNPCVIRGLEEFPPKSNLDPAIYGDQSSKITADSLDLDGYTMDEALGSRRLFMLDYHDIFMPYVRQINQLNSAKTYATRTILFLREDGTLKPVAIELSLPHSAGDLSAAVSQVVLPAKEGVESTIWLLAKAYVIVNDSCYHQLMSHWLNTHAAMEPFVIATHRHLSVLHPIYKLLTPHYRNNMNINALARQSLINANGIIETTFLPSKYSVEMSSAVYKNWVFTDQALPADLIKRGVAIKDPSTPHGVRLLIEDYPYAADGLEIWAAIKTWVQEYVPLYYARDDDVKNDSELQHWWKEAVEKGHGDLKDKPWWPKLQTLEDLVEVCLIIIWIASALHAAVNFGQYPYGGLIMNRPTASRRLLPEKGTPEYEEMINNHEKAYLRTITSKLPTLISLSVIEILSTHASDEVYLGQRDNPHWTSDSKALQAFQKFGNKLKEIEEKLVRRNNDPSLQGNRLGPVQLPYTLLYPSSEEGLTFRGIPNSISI
Description: Measurement was made at a wavelength of 234 nm. One unit of LOX activity was defined as an increase in absorbance of 0.001 per minute at 234 nm. All measurements were performed in four replicates.

[5] = parameters: method as in PMID 10730826; settings: humans, FA in its free form, for example from beer; cited from earlier work
LOX [6] = test system: LOX; parameters: method as in doi:10.3390/app9030568; settings: previous studies; cited from earlier work
[7] = FA perfused as a free pure compound in the rat intestine; cited from earlier work
[8] = blood samples of rabbits; cited from earlier work
[9] = substrate: COc1ccccc1O; experiment: TPO assay (guaiacol oxidation, activation kinetics); format: biochemical, Porcine; settings: other: TPO substrate guaiacol, n = 9; pH 7.4
Description: as §1, §2

Molecule: O=C(O)/C=C/c1ccccc1 [trans–cinnamic acid, trans-cinnamic acid]
- LOX inhibition (LOX [1]): 66.6%
- IC50 [2]: 2120 ± 106 µM
- AC50 (thyroid peroxidase (TPO)): 100 ± 5 µM
- Oral bioavailability [3]: low
- IC50 [4]: 9 ± 0.4 µM
- Ki [4]: 9 ± 0.4 µM
- Mode of Inhibition [4]: uncompetitive

Molecule: COc1cc(/C=C/C(=O)O)ccc1O [Ferulic acid, ferulic acid]
- LOX inhibition (LOX [1]): 74.4%
- Urinary excretion [5]: 19–98%
- IC50 [2]: 410 ± 20 µM
- Mode of LOX inhibition (LOX [6]): competitive
- AC50 (thyroid peroxidase (TPO)): 390 ± 19 µM
- Bioavailability [7]: about 50%
- IC50 [4]: 27 ± 1.3 µM
- Ki [4]: 8 ± 0.4 µM
- Mode of Inhibition [4]: uncompetitive

Molecule: COc1cc(C(=O)O)cc(OC)c1O [Syringic acid, syringic acid]
- IC50 [2]: 220 ± 11 µM
- Absolute bioavailability [8]: 86.27%
- AC50 (thyroid peroxidase (TPO)): 690 ± 34 µM
- IC50 [4]: 9 ± 0.4 µM
- Ki [4]: 5 ± 0.3 µM
- Mode of Inhibition [4]: uncompetitive

Molecule: CCCCC/C=C\C/C=C\CCCCCCCC(=O)O [Linoleic acid, reference compound]
- Km ([4]; LOX substrate linoleic acid, read-out: Km without Inhibitor): 7 ± 0.3 µM

B1: thyroid peroxidase (TPO) (Sus scrofa) (protein)
chain: T1 sequence (P09933 15-926)
notes: The frozen thyroid gland was minced with a fork; from tissue; host or cells: porcine thyroid gland (homogenate, centrifuged, salted out to 60%)
- Km [9]: 60 ± 3 µM
